{
  "source": "patent US20240252472A1",
  "about": "“COMBINATIONS FOR TREATING CANCER” (Purdue Pharma L.P., priority 2023, published 2024)",
  "format_in_all_cases": "cell-based, human",
  "key": {"CD38": {"tested_on": "CD38", "test": "CD38 expression by western blot in MM cell lines", "protocol": "(§1) Western Blot Analysis Cells were collected and centrifuged at 1200 rpm for 5 minutes at 4° C. Cells were washed with PBS and lysed in ice-cold lysis buffer [140 mmol/L NaCl, 10 mmol/L EDTA, 10% glycerol, 1% NP40, 20 mmol/L Tris (pH 7), 1 μMol/L pepstatin, 1 μg/mL aprotinin, 1 μg/mL leupeptin, 1 mmol/L sodium orthovanadate]. Samples were centrifuged at 10,000×g at 4° C. for 10 minutes, and supernatants were transferred to new tubes and western blots were performed following standard procedures. CD38 and anti-α-tubulin primary antibodies used in Western blot analyses were obtained from Cell Signaling (Boston, MA, USA). The horseradish peroxidase-conjugated secondary antibodies were from GE Healthcare (Chicago, IL, USA)."}, "IRF-1": {"tested_on": "IRF-1", "test": "Western blot of transcription factors in MM cell lines", "conditions": "MOLP-8 cell line; 1 and 2.5 μM, 48 h", "protocol": "as §1\n(§2) To determine the mechanism by which EDO-S101 increases CD38 expression, the expression of the transcription factors NF-κB, AP-1 and IRF-1 which are known to be involved in regulating the expression of CD38 was evaluated. Treatment with EDO-S101 (1 and 2.5 μM) for 48 h increased the expression of c-Jun and c-Fos (subunits of the transcription factor AP-1) in two (MM1.S and RPMI-8226) of the four myeloma cell lines tested (FIG. 5). Additionally, EDO-S101 increased IRF-1 expression in the MOLP-8 cell line (FIG. 5)."}, "[1]": {"tested_on": "c-Jun and c-Fos (subunits of the transcription factor AP-1)", "test": "Western blot of transcription factors in MM cell lines", "conditions": "MM1.S and RPMI-8226 (two of four lines); 1 and 2.5 μM, 48 h", "protocol": "as §1, §2"}, "MICA": {"tested_on": "MICA", "test": "Surface expression of NK cell activating ligands by flow cytometry", "conditions": "48 hours, DMSO = 100", "protocol": "(§3) For surface staining, cells were incubated with the appropriate antibodies and 7AAD (Immunostep) for 15 min in the dark. Data were acquired using a FACSCalibur cytometer (BD Biosciences) and analyzed using Infinicyt™ software (Cytognos). Specifically, the expression of CD38 or ligands for NK cell activating receptors (MICA, MICB, ULBP1-3, PVR and CD112) in MM cell lines was determined on the viable cell population (7AAD-). In primary myeloma cells, the expression of CD38 was analyzed over the viable myeloma population using the panel CD138-FITC/CD56-PE/7AAD/CD38-APC, whereas MICA/B-AF488/CD56-PE/7AAD/CD38-APC panel was used to determine MICA/B expression. Normalized median fluorescence intensity (MFI) was calculated by dividing median fluorescence obtained with the specific antibody by median fluorescence of the corresponding isotype control. MFI for each treatment was expressed as a percentage relative to the control (100%, cells cultured in media with DMSO).\n(§4) MM cells (JJN3, MM1.S, RPMI-8226, MOLP-8) were treated with EDO-S101 (1 and 2.5 μm) for 48 hours in accordance with the methods outlined above. After incubation, expression of several ligands for NK cell activating receptors: MICA, MICB, ULBP1, ULPB2, ULPB3, CD155 (PVR) and CD112 (Nectin-2) were measured using flow cytometry. Flow cytometry was then performed in accordance with the methods outlined above to calculate."}, "ULBP2": {"tested_on": "ULBP2", "test": "Surface expression of NK cell activating ligands by flow cytometry", "conditions": "48 hours, DMSO = 100", "protocol": "as §3, §4"}, "MICB": {"tested_on": "MICB", "test": "Surface expression of NK cell activating ligands by flow cytometry", "conditions": "48 hours, DMSO = 100", "protocol": "as §3, §4"}, "CD112": {"tested_on": "CD112", "test": "Surface expression of NK cell activating ligands by flow cytometry", "conditions": "RPMI-8226, 48 hours, DMSO = 100", "protocol": "as §3, §4"}, "CD155": {"tested_on": "CD155", "test": "Surface expression of NK cell activating ligands by flow cytometry", "conditions": "48 hours, DMSO = 100", "protocol": "as §3, §4"}, "ULBP1": {"tested_on": "ULBP1", "test": "Surface expression of NK cell activating ligands by flow cytometry", "conditions": "MM cell lines tested; not basally expressed; data not shown", "protocol": "as §3, §4"}, "ULBP3": {"tested_on": "ULBP3", "test": "Surface expression of NK cell activating ligands by flow cytometry", "conditions": "RPMI-8226, 48 hours, DMSO = 100", "protocol": "as §3, §4"}, "MICB mRNA": {"tested_on": "MICB mRNA", "test": "MICB mRNA by RT-qPCR in MM cell lines", "conditions": "all four MM cell lines except MOLP-8; 1 and 2.5 μM, 36 hours", "protocol": "Real time quantitative PCR (RT-qPCR) Total RNA was isolated using the RNeasy Mini Kit (Qiagen, Hilden, Germany). Following reverse transcription, PCR was performed using TaqMan Gene Expression Assays (Applied Biosystems, Foster City, CA, USA): CD38 (Hs01120071_m1), MICA (Hs00741286_m1), MICB (Hs00792952_m1) and GAPDH (Hs99999905_m1). The results were expressed as fold change relative to expression of the target gene in control cells, using endogenous expression of GAPDH for normalization."}},
  "data": [
    {"smiles": "Cn1c(CCCCCCC(=O)NO)nc2cc(N(CCCl)CCCl)ccc21", "note": "[EDO-S101, 7-(5-(bis(2-chloroethyl)amino)-1-methyl-1H-benzo[d]imidazol-2-yl)-N-hydroxyheptanamide]", "values": [
      {"measurement": "CD38 expression, western blot", "setting": "CD38; MM1.S, JJN3, RPMI-8226, 1 and 2.5 μM", "result": "increased"},
      {"measurement": "increase in CD38 by Western blot and RT-qPCR", "setting": "CD38; MOLP-8 cells", "result": "not observed"},
      {"measurement": "IRF-1 expression", "setting": "IRF-1", "result": "increased"},
      {"measurement": "expression of c-Jun and c-Fos", "setting": "[1]", "result": "increased"},
      {"measurement": "Normalized MFI MICA", "setting": "MICA; JJN3, EDO-S101 1 μM", "result": "162.9 ± 11.8", "unit": "%"},
      {"measurement": "Normalized MFI MICA", "setting": "MICA; JJN3, EDO-S101 2.5 μM", "result": "168.8 ± 10.3", "unit": "%"},
      {"measurement": "Normalized MFI MICA", "setting": "MICA; MM1.S, EDO-S101 1 μM", "result": "131.9 ± 37.6", "unit": "%"},
      {"measurement": "Normalized MFI MICA", "setting": "MICA; MM1.S, EDO-S101 2.5 μM", "result": "128 ± 38.2", "unit": "%"},
      {"measurement": "Normalized MFI MICA", "setting": "MICA; MOLP-8, EDO-S101 1 μM", "result": "112.9 ± 5.7", "unit": "%"},
      {"measurement": "Normalized MFI MICA", "setting": "MICA; MOLP-8, EDO-S101 2.5 μM", "result": "131.7 ± 13.4", "unit": "%"},
      {"measurement": "Normalized MFI MICA", "setting": "MICA; RPMI-8226, EDO-S101 1 μM", "result": "121.3 ± 5.9", "unit": "%"},
      {"measurement": "Normalized MFI MICA", "setting": "MICA; RPMI-8226, EDO-S101 2.5 μM", "result": "153.6 ± 16.1", "unit": "%"},
      {"measurement": "Normalized MFI ULBP2", "setting": "ULBP2; JJN3, EDO-S101 1 μM", "result": "110.5 ± 9.5", "unit": "%"},
      {"measurement": "Normalized MFI ULBP2", "setting": "ULBP2; JJN3, EDO-S101 2.5 μM", "result": "112.9 ± 13.4", "unit": "%"},
      {"measurement": "Normalized MFI ULBP2", "setting": "ULBP2; MM1.S, EDO-S101 1 μM", "result": "95.8 ± 4.5", "unit": "%"},
      {"measurement": "Normalized MFI ULBP2", "setting": "ULBP2; MM1.S, EDO-S101 2.5 μM", "result": "96.3 ± 12.3", "unit": "%"},
      {"measurement": "Normalized MFI ULBP2", "setting": "ULBP2; MOLP-8, EDO-S101 1 μM", "result": "116.1 ± 4.6", "unit": "%"},
      {"measurement": "Normalized MFI ULBP2", "setting": "ULBP2; MOLP-8, EDO-S101 2.5 μM", "result": "124.7 ± 13.5", "unit": "%"},
      {"measurement": "Normalized MFI MICB", "setting": "MICB; JJN3, EDO-S101 1 μM", "result": "137.6 ± 14", "unit": "%"},
      {"measurement": "Normalized MFI MICB", "setting": "MICB; JJN3, EDO-S101 2.5 μM", "result": "144.9 ± 28", "unit": "%"},
      {"measurement": "Normalized MFI MICB", "setting": "MICB; MM1.S, EDO-S101 1 μM", "result": "113.8 ± 7.6", "unit": "%"},
      {"measurement": "Normalized MFI MICB", "setting": "MICB; MM1.S, EDO-S101 2.5 μM", "result": "113.4 ± 3.3", "unit": "%"},
      {"measurement": "Normalized MFI MICB", "setting": "MICB; MOLP-8, EDO-S101 1 μM", "result": "107.8 ± 0.5", "unit": "%"},
      {"measurement": "Normalized MFI MICB", "setting": "MICB; MOLP-8, EDO-S101 2.5 μM", "result": "119.3 ± 7.7", "unit": "%"},
      {"measurement": "Normalized MFI MICB", "setting": "MICB; RPMI-8226, EDO-S101 1 μM", "result": "107.1 ± 6.6", "unit": "%"},
      {"measurement": "Normalized MFI MICB", "setting": "MICB; RPMI-8226, EDO-S101 2.5 μM", "result": "131.3 ± 9.4", "unit": "%"},
      {"measurement": "Normalized MFI CD112", "setting": "CD112; EDO-S101 1 μM", "result": "116.6 ± 13.2", "unit": "%"},
      {"measurement": "Normalized MFI CD112", "setting": "CD112; EDO-S101 2.5 μM", "result": "142.8 ± 11.5", "unit": "%"},
      {"measurement": "Normalized MFI CD155", "setting": "CD155; JJN3, EDO-S101 1 μM", "result": "161.4 ± 14.3", "unit": "%"},
      {"measurement": "Normalized MFI CD155", "setting": "CD155; JJN3, EDO-S101 2.5 μM", "result": "156.8 ± 24.7", "unit": "%"},
      {"measurement": "Normalized MFI CD155", "setting": "CD155; MM1.S, EDO-S101 1 μM", "result": "113.3 ± 3.9", "unit": "%"},
      {"measurement": "Normalized MFI CD155", "setting": "CD155; MM1.S, EDO-S101 2.5 μM", "result": "111.5 ± 15.3", "unit": "%"},
      {"measurement": "Normalized MFI CD155", "setting": "CD155; RPMI-8226, EDO-S101 1 μM", "result": "123.9 ± 6.1", "unit": "%"},
      {"measurement": "Normalized MFI CD155", "setting": "CD155; RPMI-8226, EDO-S101 2.5 μM", "result": "168.2 ± 24.8", "unit": "%"},
      {"measurement": "ULBP1 expression", "setting": "ULBP1", "result": "did not change"},
      {"measurement": "Normalized MFI ULBP3", "setting": "ULBP3; EDO-S101 1 μM", "result": "111.7 ± 14.8", "unit": "%"},
      {"measurement": "Normalized MFI ULBP3", "setting": "ULBP3; EDO-S101 2.5 μM", "result": "129.6 ± 20.2", "unit": "%"},
      {"measurement": "expression of MICB at the mRNA level", "setting": "MICB mRNA", "result": "increased"}
    ]}
  ]
}
